The text below walks through data of BindingDB's records for patent US20240294509 (Euregen Biopharma Co., 2024).

The target in assay [1] is T1, Protein mono-ADP-ribosyltransferase TIPARP (Homo sapiens, UniProt Q7Z3E1).
T1 sequence (Q7Z3E1 whole entry): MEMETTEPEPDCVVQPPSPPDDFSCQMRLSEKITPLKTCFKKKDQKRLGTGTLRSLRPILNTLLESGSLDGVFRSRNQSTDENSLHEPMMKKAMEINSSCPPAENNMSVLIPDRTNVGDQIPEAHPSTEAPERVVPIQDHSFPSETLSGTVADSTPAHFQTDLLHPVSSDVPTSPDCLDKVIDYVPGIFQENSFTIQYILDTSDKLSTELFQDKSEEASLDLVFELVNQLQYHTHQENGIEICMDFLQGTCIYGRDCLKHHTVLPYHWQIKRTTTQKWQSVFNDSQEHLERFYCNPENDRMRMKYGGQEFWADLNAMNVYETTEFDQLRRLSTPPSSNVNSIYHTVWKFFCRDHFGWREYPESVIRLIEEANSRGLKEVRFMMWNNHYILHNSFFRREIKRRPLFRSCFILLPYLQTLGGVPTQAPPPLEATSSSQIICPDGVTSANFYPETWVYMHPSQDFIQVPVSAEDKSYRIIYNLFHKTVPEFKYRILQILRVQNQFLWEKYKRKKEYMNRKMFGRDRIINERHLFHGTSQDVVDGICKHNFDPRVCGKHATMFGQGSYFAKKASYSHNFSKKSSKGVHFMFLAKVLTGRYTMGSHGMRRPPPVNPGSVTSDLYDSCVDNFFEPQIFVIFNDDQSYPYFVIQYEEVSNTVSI
Description: Inhibition of Compounds on PARP1/7 Enzyme Activity.
Description: (§1) Fit the dose-response data with standard dilutions using Prism GraphPad software and calculate the concentration required to achieve 5000 inhibition of PARP1 or PARP7 enzyme activity (IC50).

In assay [2] the target is Poly [ADP-ribose] polymerase 1 (Homo sapiens, UniProt P09874). Kind of assay: Inhibition of Compounds on PARP1/7 Enzyme Activity.
Sequence of Poly [ADP-ribose] polymerase 1 (P09874 whole entry): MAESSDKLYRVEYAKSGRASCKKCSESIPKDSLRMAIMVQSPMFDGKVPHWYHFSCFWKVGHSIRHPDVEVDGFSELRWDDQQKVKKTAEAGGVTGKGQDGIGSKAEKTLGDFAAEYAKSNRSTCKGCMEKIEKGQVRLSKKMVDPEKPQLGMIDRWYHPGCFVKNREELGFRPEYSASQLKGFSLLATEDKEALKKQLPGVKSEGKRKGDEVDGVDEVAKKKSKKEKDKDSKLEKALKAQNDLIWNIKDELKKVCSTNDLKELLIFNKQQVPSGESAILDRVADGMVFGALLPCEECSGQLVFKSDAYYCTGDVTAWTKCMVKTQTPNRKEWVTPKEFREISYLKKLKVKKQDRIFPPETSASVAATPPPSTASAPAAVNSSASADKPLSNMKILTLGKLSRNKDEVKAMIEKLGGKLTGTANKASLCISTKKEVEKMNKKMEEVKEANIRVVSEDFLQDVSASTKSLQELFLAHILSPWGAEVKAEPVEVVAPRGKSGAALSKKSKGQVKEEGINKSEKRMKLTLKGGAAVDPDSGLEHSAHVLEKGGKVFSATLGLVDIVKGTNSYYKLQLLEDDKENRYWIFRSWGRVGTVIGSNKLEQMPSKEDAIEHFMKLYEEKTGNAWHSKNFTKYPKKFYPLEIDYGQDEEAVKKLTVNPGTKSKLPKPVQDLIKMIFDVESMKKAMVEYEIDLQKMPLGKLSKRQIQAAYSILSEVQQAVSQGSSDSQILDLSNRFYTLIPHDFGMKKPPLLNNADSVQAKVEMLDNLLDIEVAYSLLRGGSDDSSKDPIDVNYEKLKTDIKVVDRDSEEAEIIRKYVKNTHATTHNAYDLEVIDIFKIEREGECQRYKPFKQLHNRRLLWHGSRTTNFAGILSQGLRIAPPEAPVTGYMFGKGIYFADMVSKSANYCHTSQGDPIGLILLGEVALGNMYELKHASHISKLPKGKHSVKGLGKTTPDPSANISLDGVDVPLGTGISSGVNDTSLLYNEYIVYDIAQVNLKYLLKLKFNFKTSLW
Description: as §1

For the molecule `O=C(CC[C@@H]1CCCN1c1cc(C(F)(F)F)c(=O)[nH]n1)N1CCN(c2ncc(C(F)(F)F)cn2)CC1`, the IC50 (in general, the concentration at which inhibition is half-maximal) in assay [1] is 2.9 nM; in assay [2], 1.3 nM.

In the case of `O=C(COC[C@@H]1CCCN1c1cc(C(F)(F)F)c(=O)[nH]n1)N1CCN(c2ncc(C(F)(F)F)cn2)CC1` [US20240294509, Compound 1], the IC50 stood at 4 nM in assay [1] and 293 nM in assay [2].

For `O=C(CC[C@@H]1C[C@H](Oc2ccccc2)CN1c1cc(C(F)(F)F)c(=O)[nH]n1)N1CCN(c2ncc(C(F)(F)F)cn2)CC1` [US20240294509, Compound 19], the figures for the IC50 in assay [1] and in assay [2] were 4.4 nM and 2020 nM, respectively.

With `O=C(CC[C@@H]1C[C@@H](F)CN1c1cc(C(F)(F)F)c(=O)[nH]n1)N1CCN(c2ncc(C(F)(F)F)cn2)CC1` [US20240294509, Compound 20], the IC50 came to 3.2 nM in assay [1] and 49 nM in assay [2].

For the molecule `O=C(CC[C@@H]1C[C@@H](Oc2cccc(Cl)c2)CN1c1cc(C(F)(F)F)c(=O)[nH]n1)N1CCN(c2ncc(C(F)(F)F)cn2)CC1` [US20240294509, Compound 49], the IC50 amounted to 26 nM in assay [1] and 79 nM in assay [2].

Turning to `O=C(CC[C@@H]1C[C@@H](Oc2ccc(F)cc2F)CN1c1cc(C(F)(F)F)c(=O)[nH]n1)N1CCN(c2ncc(C(F)(F)F)cn2)CC1` [US20240294509, Compound 50], the IC50 in assay [1] was 13 nM; in assay [2], 15 nM.

`O=C(CC[C@@H]1C[C@H](Oc2cc(F)cc(F)c2)CN1c1cc(C(F)(F)F)c(=O)[nH]n1)N1CCN(c2ncc(C(F)(F)F)cn2)CC1` [US20240294509, Compound 55]: the IC50 in assay [1] is 82 nM; in assay [2], 15600 nM.

For `O=C(CC[C@@H]1C[C@H](Oc2ccc(F)c(F)c2)CN1c1cc(C(F)(F)F)c(=O)[nH]n1)N1CCN(c2ncc(C(F)(F)F)cn2)CC1` [US20240294509, Compound 58], the IC50 was 54 nM in assay [1] and 3190 nM in assay [2].

As for `O=C(CC[C@@H]1C[C@@H](Oc2cncnc2)CN1c1cc(C(F)(F)F)c(=O)[nH]n1)N1CCN(c2ncc(C(F)(F)F)cn2)CC1` [US20240294509, Compound 63], the IC50 in assay [1] was found to be 3 nM; in assay [2], 179 nM.
